Columns and labels:
migraine = settings: literature reports; cited from earlier work
D2 dopamine receptor = D2 dopamine receptor (Homo sapiens, UniProt P14416); settings: cited from earlier work
[1] = tested on: quinpirole-induced yawning in rats; assay: antagonism of quinpirole-induced yawning in rats; format: in vivo, Male Sprague Dawley Rats
Protocol: Yawning is a behavior that has been linked to activation of dopaminergic neurotransmission.
Male Sprague Dawley Rats were used in this example. The animals were allowed 12 day acclimatization before testing and at the time of the study, their body weights ranged from 280-330 grams. The rats were housed in standard size steel cages with four animals per cage and were maintained on a 12 hour light/dark schedule with the lights being on from 6:00 a.m. to 6:00 p.m. All tests were performed between 8:00 a.m. and 2:00 p.m. Six animals were used per group.
The animals were then placed individually in a 6″×6″plexiglass observation cages and the number of yawns were counted for the subsequent 30 minutes. The results are shown in FIG. 1 with the data being expressed as the mean total number of yawns per 30 minutes. An analysis of variance was used for statistical calculations and probability levels of <0.05 was regarded as being statistically significant.

migraine headache = settings: cited from earlier work; for efficacy in acute treatment of migraine (in words): literature reports
[2] = within 60 minutes of administration, randomized, double-blind clinical trial (Jones et al 1989)

Chain of D2 dopamine receptor (P14416 whole entry): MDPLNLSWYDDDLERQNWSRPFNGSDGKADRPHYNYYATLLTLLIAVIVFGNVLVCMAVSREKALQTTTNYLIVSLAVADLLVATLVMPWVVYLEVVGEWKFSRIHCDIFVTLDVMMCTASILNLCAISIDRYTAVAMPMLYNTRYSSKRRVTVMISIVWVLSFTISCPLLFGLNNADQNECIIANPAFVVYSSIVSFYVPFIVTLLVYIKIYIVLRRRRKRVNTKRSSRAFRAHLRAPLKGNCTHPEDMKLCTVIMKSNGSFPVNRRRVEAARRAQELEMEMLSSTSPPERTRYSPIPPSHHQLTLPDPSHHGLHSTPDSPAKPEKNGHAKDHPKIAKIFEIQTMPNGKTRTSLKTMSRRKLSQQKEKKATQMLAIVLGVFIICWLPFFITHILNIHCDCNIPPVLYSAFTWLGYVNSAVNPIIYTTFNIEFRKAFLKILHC

Structure (SMILES): CCN(CC)CCNC(=O)c1cc(Cl)c(N)cc1OC [Metoclopramide]
- preventive / prophylactic effect on migraine (in words) (migraine): beneficial effect
- affinity for the D2 dopamine receptor (in words) (D2 dopamine receptor): relatively low affinity

Structure (SMILES): CCCN1CCC[C@@H](c2cccc(S(C)(=O)=O)c2)C1 [Cmpd 1, S-(−)-3-[3-(methylsulfonyl)phenyl]-1-propyl-piperidine]
- antagonism of the yawning behavior induced by quinpirole ([1]; 10 or 30 mg/kg injected 15 minutes before quinpirole 0.1 mg/kg): dose-dependent and complete antagonism
- induction of yawning behavior by compound given alone ([1]; given alone at a dose of 30 mg/kg): failed to induce yawning behavior

Structure (SMILES): CN(C)CCCN1c2ccccc2Sc2ccc(Cl)cc21 [Chlorpromazine]
- efficacy in acute treatment of migraine (in words) (migraine headache): highly effective
- common side effect (migraine headache; migraine patients in an emergency department (Lane et al 1985)): moderate drowsiness

Structure (SMILES): O=C(CCCN1CCC(O)(c2ccc(Cl)cc2)CC1)c1ccc(F)cc1 [haloperidol]
- patients with headache completely or substantially relieved (migraine headache; Fisher, J Emerg Med 1995): six of six
- time to headache relief after administration (migraine headache; Fisher, J Emerg Med 1995): 25 to 65 min

Structure (SMILES): O=c1[nH]c2ccccc2n1CCCN1CCC(n2c(=O)[nH]c3cc(Cl)ccc32)CC1 [Domperidone]
- preventive / prophylactic effect on migraine (in words) (migraine): prevent the occurrence of a migraine

Structure (SMILES): Fc1ccc(C(c2ccc(F)cc2)N2CCN(C/C=C/c3ccccc3)CC2)cc1 [Flunarizine]
- efficacy in acute treatment of migraine (in words) (migraine headache): high degree of relief
- affinity for the D2 dopamine receptor (in words) (D2 dopamine receptor): moderate degree of affinity

Structure (SMILES): CN1CCN(CCCN2c3ccccc3Sc3ccc(Cl)cc32)CC1 [Prochlorperazine]
- efficacy in acute treatment of migraine (in words) (migraine headache): high degree of efficacy
- additional patients with partial relief (migraine headache; [2]): 14%
- patients with complete relief (migraine headache; [2]): 74%
